Data taken from patent US5250538A, “Indole derivatives and their use” (Novo Nordisk A/S, priority 1990, dated 1993).
Counter-ions that a name gives are not always drawn.

Columns and labels:
5-HT1A = biological target: T1, 5-HT1A (Rattus norvegicus, UniProt P19327); test: 5-HT1A receptor binding in vitro (3H-8-OH-DPAT, rat frontal cortex/hippocampus); details: rat brain, ligand 3H-8-OH-DPAT 2 nM, 10 min 37° C.
T1 construct: from tissue
T1 sequence (P19327 1-422): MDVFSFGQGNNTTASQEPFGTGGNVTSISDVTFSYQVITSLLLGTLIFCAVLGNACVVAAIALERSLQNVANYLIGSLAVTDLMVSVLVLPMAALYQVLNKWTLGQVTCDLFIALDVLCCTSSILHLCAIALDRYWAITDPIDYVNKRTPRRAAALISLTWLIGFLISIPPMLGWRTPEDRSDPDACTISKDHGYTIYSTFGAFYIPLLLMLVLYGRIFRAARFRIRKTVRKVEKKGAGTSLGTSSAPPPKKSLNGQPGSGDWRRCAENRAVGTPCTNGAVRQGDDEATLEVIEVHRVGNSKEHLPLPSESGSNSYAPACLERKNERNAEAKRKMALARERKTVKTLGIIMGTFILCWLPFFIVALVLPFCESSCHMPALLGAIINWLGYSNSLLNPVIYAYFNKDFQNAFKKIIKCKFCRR
Description: (§1) Compounds of the general formula (I) were tested for binding to 5-HT receptors and compared with known ligands by the following procedure:
(§2) Rat brain tissue (as specified in the table hereinafter) was homogenized using a Polytron homogenizer. The final pellet was resuspended in 125 vol (tissue wet weight) of buffer.
(§3) In all assays incubation was carried out for 10 min at 37° C.
(§4) Detailed conditions for the receptor binding assay in vitro are tabulated below.

5-HT1B = biological target: T2, 5-HT1B (Rattus norvegicus, UniProt P28564); test: 5-HT1B receptor binding in vitro (3H-5-HT, 50 nM 8-OH-DPAT included)
T2 construct: from tissue
Description: as §1, §2, §3
Labelling of the 5-HT1B receptor was complicated by the fact that the available ligand ^3 H-5-HT is nonselective.
as §4

5-HT1A receptors = details: background, in words; cited from earlier work
5-HT1 recognition sites = details: background, Ann.Reports Med.Chem. 21 (1986), 42-43; cited from earlier work
5-HT2 receptor subtype = details: background, in words; cited from earlier work

T2 sequence (P28564 whole entry): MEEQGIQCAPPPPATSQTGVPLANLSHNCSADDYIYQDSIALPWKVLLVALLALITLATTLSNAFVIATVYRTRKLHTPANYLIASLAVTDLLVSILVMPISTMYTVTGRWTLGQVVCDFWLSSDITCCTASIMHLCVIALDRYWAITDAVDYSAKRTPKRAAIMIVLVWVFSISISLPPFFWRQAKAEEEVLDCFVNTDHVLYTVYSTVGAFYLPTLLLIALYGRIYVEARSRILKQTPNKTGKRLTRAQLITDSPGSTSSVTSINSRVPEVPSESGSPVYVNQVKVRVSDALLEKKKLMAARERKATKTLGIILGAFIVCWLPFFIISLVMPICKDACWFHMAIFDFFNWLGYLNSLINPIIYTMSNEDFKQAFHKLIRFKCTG

| Compound | IC50 (5-HT1A) [µM] | IC50 (5-HT1B) [µM] | other results |
| --- | --- | --- | --- |
| O=C1C2C3C=CC(C4C=CC43)C2C(=O)N1CCCCNCCc1c[nH]c2ccccc12 (stereo not drawn) [Example 1, 1-(4-(1,3-Dioxo-4,7-etheno-1,3,3a,4,4a,6a,7,7a-octahydro-2 H-cyclobut[f]isoindol-2-yl)butyl-1-amino)-2-(3-indolyl)-ethane, oxalate] | 0.026 | 0.48 |  |
| O=C1c2ccccc2C(=O)N1CCCCNCCc1c[nH]c2ccccc12 [Example 2, 1-(4-Phthalimidobutyl-1-amino)-2-(3-indolyl)-ethane, oxalate] | 0.375 | 0.148 |  |
| COc1ccc2[nH]cc(CCNCCCCN3C(=O)CC4(CCCC4)CC3=O)c2c1 [Example 4, 1-(4-(7,9-Dioxo-8-azaspiro[4,5]decan-8-yl)butyl-1-amino)-2-(5-methoxy-3-indolyl)-ethane, oxalate] | 0.004 | > 1 |  |
| COc1ccc2[nH]cc(CCNCCCCN3C(=O)C4C5C=CC(C6C=CC65)C4C3=O)c2c1 (stereo not drawn) [Example 5, 1-(4-(1,3-Dioxo-4,7-etheno-1,3,3a,4,4a,6a,7,7a-octa-hydro-2 H-cyclobut(f]isoindol-2-yl)butyl-1-amino)-2(5-methoxy-3-indolyl)-ethand, oxalate] | 0.0025 | > 1 |  |
| CCCN(CCC)C1CCc2cccc(O)c2C1 (stereo not drawn) [Example 8-OH-DPAT, 8-hydroxy-2-(di-n-propylamino)tetralin] |  |  | binds with high affinity to 5-HT1A receptors (5-HT1A receptors): high affinity |
| O=C1c2ccccc2S(=O)(=O)N1CCCCN1CCN(c2ncccn2)CC1 [Ipsapirone, reference compound] |  | > 1 |  |
| COc1ccc2[nH]cc(C3=CCNCC3)c2c1 [RU 24969] |  |  | affinity for 5-HT1 recognition sites (5-HT1 recognition sites): high affinity |
| O=C(c1ccc(F)cc1)C1CCN(CCn2c(=O)[nH]c3ccccc3c2=O)CC1 [ketanserin] |  |  | high affinity for the 5-HT2 receptor subtype (5-HT2 receptor subtype): high affinity |
